PubChem BioAssay (NCI)
Several values for one entry are separate records, joined by “and”; a condition that tells them apart may be missing. Identical values can stand only once.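 96-well plates; 48 h exposure; 5 concentrations. Endpoints by linear interpolation between flanking doses. Not reached: highest tested concentration assigned. The concentration for 50% growth inhibition is given as GI50. TGI marks complete inhibition of growth.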 Where a SMILES comes first, the peptide text is derived from it. The star is where a group is joined. Palmitoyl = CCCCCCCCCCCCCCCC(=O)*

Experiments:
Experiment in all cases: NCI-60 cell line screen, 48 h
SW-620 colon = tested on: SW-620 colon
SF-295 CNS = tested on: SF-295 CNS
ACHN renal = tested on: ACHN renal
EKVX NSCLC = tested on: EKVX NSCLC
SN12C renal = tested on: SN12C renal
NCI-H226 lung = tested on: NCI-H226 lung
HCT-116 colon = tested on: HCT-116 colon
MDA-N = tested on: MDA-N
TK-10 renal = tested on: TK-10 renal
MOLT-4 leukemia = tested on: MOLT-4 leukemia

Row | Structure (SMILES) | TGI (SW-620 colon) | TGI (SF-295 CNS) | TGI (ACHN renal) [µM] | TGI (EKVX NSCLC) | TGI (SN12C renal) | TGI (NCI-H226 lung) | TGI (HCT-116 colon) | TGI (MDA-N) [µM] | TGI (TK-10 renal) [µM] | TGI (MOLT-4 leukemia) | GI50 (SW-620 colon) | GI50 (SF-295 CNS) | GI50 (EKVX NSCLC) | GI50 (MOLT-4 leukemia) | GI50 (NCI-H226 lung) | GI50 (HCT-116 colon) | GI50 (TK-10 renal) [µM]
1 | Fc1nc(F)nc(-c2c3ccccc3c3n2CCS3)n1 | > 100 µM | > 100 µM | > 100 | > 100 µM | > 100 µM | > 100 µM | > 100 µM | – | – | – | – | – | – | – | – | – | –
2 | Cc1cnc2[nH]c(-c3ccccc3)cc(=O)c2c1 | > 100 µM | – | > 100 | > 82.2 µM | > 14 µM | 9.69 µM | > 100 µM | > 100 | 99.5 | > 14.4 µM | – | – | – | – | – | – | –
3 | CCCCCCCC(CC(=O)O)OC(=O)CC(CCCCCCC)OC1OC(C)C(O)C(O)C1OC1OC(C)C(O)C(O)C1O (stereo not given) | > 100 µM | > 100 µM | > 100 | > 100 µM | > 100 µM | > 100 µM | > 100 µM | > 100 | – | > 100 µM | – | – | – | – | – | – | –
4 | CC(=O)c1c(O)c(C)c(O)c2c1OC1=CC(=O)C(C(C)=O)C(=O)C12C (stereo not given) | 41.3 µM and 86 µM | 12.4 µM and 33.8 µM | – | 17 µM and 48.2 µM | 8.95 µM and 50.1 µM | 20.6 µM and 60.2 µM | 45.7 µM and 66.3 µM | – | – | 13.5 µM and 59.4 µM | 6.44 µM and 27.5 µM | 3.48 µM and 8.79 µM | 4.39 µM and 20.3 µM | 3.37 µM and 20.1 µM | 6.93 µM and 18.3 µM | 10.9 µM and 22.3 µM | –
5 | Cc1ccc(S(=O)(=O)NC(=O)NS(=O)(=O)O)cc1 | > 100 µM | – | > 100 | – | > 100 µM | – | > 100 µM | > 100 | > 100 | > 100 µM | – | – | – | – | – | – | –
6 | CC(=O)Oc1ccc2c(c1)c1c(OC(C)=O)c3ccccc3c(OC(C)=O)c1n2Cc1cccc(C)c1 | – | 72.3 µM | > 100 | 57.3 µM | > 100 µM | > 100 µM | > 100 µM | > 100 | > 100 | > 100 µM | – | – | – | – | – | – | –
7 | COC1(OC)/C(=C(\N)C=O)NC(C)(C)N1O | > 100 µM | > 100 µM | > 100 | > 100 µM | > 100 µM | > 100 µM | > 100 µM | > 100 | – | > 100 µM | – | – | – | – | – | – | –
8 | CCCCCCCCCCCCCCCC(=O)NC(CCCCN)C(=O)NCC(=O)NC(Cc1ccccc1)C(=O)N1CCCC1C(=O)NC(CO)C(=O)NC(Cc1ccc(O)cc1)C(=O)NC(CCCCN)C(=O)NC(CC(C)C)C(=O)NC(CCCN=C(N)N)C(=O)N1CCCC1C(=O)NCC(N)=O (stereo not given) (Palmitoyl-KGFPSYKLRPG-NH2; configuration not given here) | 79.5 µM | 72.6 µM | – | 44 µM | – | 42.5 µM | 31.8 µM | – | 44.8 | 32.7 µM | 26 µM | 27.1 µM | 18.8 µM | 16.5 µM | 20.2 µM | 15.3 µM | 21.9
9 | O=C(CCN1CCCCC1CO)Nc1ccc2c(c1)C(=O)c1ccc(NC(=O)CCN3CCCCC3CO)cc1C2=O (stereo not given) | 27 µM | 62.6 µM | 32 | 47 µM | 25.5 µM | 52.5 µM | 19.6 µM | – | 27.2 | 35.7 µM | – | – | – | – | – | – | –
10 | O=C(O)CCCc1nc2c(n1-c1ccccc1)C(=O)c1ccccc1C2=O | > 100 µM | > 100 µM | > 100 | > 100 µM | > 100 µM | – | > 100 µM | > 100 | > 100 | > 100 µM | – | – | – | – | – | – | –
